Source: PMC3700763, “First human dose-escalation study with remogliflozin etabonate, a selective inhibitor of the sodium-glucose transporter 2 (SGLT2), in healthy subjects and in subjects with type 2 diabetes mellitus” (BMC Pharmacology & Toxicology, 2013)
Marks after values point to notes of the source that are not given here.

Tests used:
SGLT2 [1] = target: T1, SGLT2 (Homo sapiens, UniProt P31639); test: 24-h urine glucose excretion, T2DM subjects; assay type: in vivo; conditions: mean (SD)
T1 construct: from tissue; host or cells: kidney (proximal tubule) of living human subjects: healthy volunteers and T2DM patients
T1 sequence (P31639 1-672): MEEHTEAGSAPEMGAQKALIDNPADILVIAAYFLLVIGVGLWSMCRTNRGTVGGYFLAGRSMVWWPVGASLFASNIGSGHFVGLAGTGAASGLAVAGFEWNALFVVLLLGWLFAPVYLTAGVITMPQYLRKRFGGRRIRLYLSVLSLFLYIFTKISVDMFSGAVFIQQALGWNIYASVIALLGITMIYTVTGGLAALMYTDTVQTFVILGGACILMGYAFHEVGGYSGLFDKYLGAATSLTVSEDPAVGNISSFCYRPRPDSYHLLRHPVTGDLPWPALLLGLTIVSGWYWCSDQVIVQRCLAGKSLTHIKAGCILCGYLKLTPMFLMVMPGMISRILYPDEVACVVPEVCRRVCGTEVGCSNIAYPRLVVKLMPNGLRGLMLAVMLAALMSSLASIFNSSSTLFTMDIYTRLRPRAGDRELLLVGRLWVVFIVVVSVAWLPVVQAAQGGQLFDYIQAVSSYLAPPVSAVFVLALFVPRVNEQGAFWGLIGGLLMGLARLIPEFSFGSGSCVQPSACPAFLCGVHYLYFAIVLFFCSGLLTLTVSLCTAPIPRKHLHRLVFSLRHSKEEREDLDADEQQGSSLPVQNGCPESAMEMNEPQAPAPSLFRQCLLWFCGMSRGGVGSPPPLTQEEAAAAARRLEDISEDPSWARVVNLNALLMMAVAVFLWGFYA
Procedure: (§1) Urine samples were collected at pre-dose, and over a series of intervals (0–2, 2–4, 4–6, 6–8, 8–12 and 12–24 h post-dose) for the analysis of creatinine, glucose and electrolytes (Na, K and Cl). All fluid intake was recorded, as well as urine volume, over the 24 hours before and after dosing in each treatment period. Urine was tested for protein on the first morning void of day -1 and 24 h after dosing.
(§2) The percentage of filtered glucose excreted in the urine for each individual time period was calculated as the amount of glucose excreted during that time period divided by (CLCR × PG × time interval length), where CLCR is the creatinine clearance for the time interval, PG is the plasma glucose concentration closest to the midpoint of the time interval, and the time interval is the period (min) of urine collection (CLCR × PG represents the glucose filtered load). For the 24-h period, the percentage of filtered glucose excreted was calculated as the amount of glucose excreted over 24 h divided by the sum over the individual time intervals of (CLCR × PG × time interval length).

[2] = 24-h urine electrolyte excretion, healthy subjects; assay type: in vivo, human; conditions: for Urinary chloride excretion / Urinary potassium excretion / Urinary sodium excretion: 24-h, healthy subjects, mean (SD)
Procedure: as §1

SGLT2 [3] = target: T1, SGLT2; test: 24-h urine glucose excretion, healthy subjects; assay type: in vivo; conditions: for Filtered glucose excreted in urine / Urinary glucose excretion: 24-h, healthy subjects, mean (SD)
Procedure: as §1, §2

[4] = Fluid balance, T2DM subjects; assay type: in vivo, human; conditions: mean (SD)
Procedure: as §1

[5] = Plasma glucose, healthy subjects; assay type: in vivo, human; conditions: mean, very similar between placebo and remogliflozin etabonate periods
Procedure: Blood samples for glucose were taken at 0 (pre-dose), and 1, 2, 4, 8 and 12 h after dosing in each treatment period (Part A). For Part B, blood samples for glucose, insulin and GLP-1 were taken at check-in on day -2, and at 0 h (pre-dose), and 0.5, 1, 1.5, 2, 4 h (prior to lunch), 4.5, 5, 6, 8, 10, 12 and 24 h after dosing on day 1 of each treatment period.
For glucose, plasma was analyzed using a YSI 2300 Glucose Analyzer (Yellow Springs International Life Sciences, Yellow Springs, OH, USA). For insulin, plasma was rapidly prepared and frozen at -70°C until analyzed by LabCorp (San Diego, CA, USA) using a chemiluminescent immunometric assay method (Siemen’s Immulite 2000 analyzer with Immulite Insulin Kit L2KIN2).

[6] = mice; cited from earlier work

For `CCOC(=O)OC[C@H]1O[C@@H](Oc2nn(C(C)C)c(C)c2Cc2ccc(OC(C)C)cc2)[C@H](O)[C@@H](O)[C@@H]1O` [Remogliflozin etabonate, remogliflozin etabonate], the Urinary glucose excretion (SGLT2 [1]; 50 mg single dose) was 384 (210) mmol, the “Filtered glucose excreted in urine” value (SGLT2 [1]; 50 mg single dose, n = 5) was 15.9 (5.9)^c % and the “Filtered glucose excreted in urine” value (SGLT2 [1]; 500 mg single dose) was 21.6 (9.1) %. The Urinary glucose excretion (SGLT2 [1]; 500 mg single dose) was 642 (256) mmol, the Urinary chloride excretion ([2]; 20 mg single dose) was 136 (56.6) mmol and the Urinary potassium excretion ([2]; 20 mg single dose) was 66.6 (27.7) mmol. The Urinary sodium excretion ([2]; 20 mg single dose) was 148 (64.0) mmol, the Urinary chloride excretion ([2]; 50 mg single dose, n = 7) was 189 (51.4)^b mmol and the Urinary potassium excretion ([2]; 50 mg single dose, n = 7) was 75.2 (21.3)^b mmol. For the same compound, the Urinary sodium excretion ([2]; 50 mg single dose, n = 7) was 212 (67.6)^b mmol, the Urinary chloride excretion ([2]; 150 mg single dose, n = 7) was 179 (49.6)^b mmol and the Urinary potassium excretion ([2]; 150 mg single dose, n = 7) was 59.7 (20.3)^b mmol. The Urinary sodium excretion ([2]; 150 mg single dose, n = 7) was 176 (38.7)^b mmol, the Urinary chloride excretion ([2]; 500 mg single dose) was 126 (55) mmol and the Urinary potassium excretion ([2]; 500 mg single dose) was 55.8 (17.2) mmol. For the same compound, the Urinary sodium excretion ([2]; 500 mg single dose) was 143 (55.0) mmol, the Urinary chloride excretion ([2]; 1000 mg single dose) was 201 (61.5) mmol and the Urinary potassium excretion ([2]; 1000 mg single dose) was 89.1 (24.7) mmol. For the same compound, the Urinary sodium excretion ([2]; 1000 mg single dose) was 207 (62.9) mmol, the “Effect on clinical laboratory results, urine electrolytes, vital signs or ECGs” value ([2]; all subjects) was “no obvious patterns suggesting an effect” and the “Filtered glucose excreted in urine” value (SGLT2 [3]; 20 mg single dose) was 9.0 (2.2) %. The Urinary glucose excretion (SGLT2 [3]; 20 mg single dose) was 67.1 (17.9) mmol, the “Filtered glucose excreted in urine” value (SGLT2 [3]; 50 mg single dose, n = 7) was 12.7 (3.7)^b % and the Urinary glucose excretion (SGLT2 [3]; 50 mg single dose, n = 7) was 96.7 (17.1)^b mmol. For the same compound, the “Filtered glucose excreted in urine” value (SGLT2 [3]; 150 mg single dose, n = 7) was 25.5 (7.8)^b %, the Urinary glucose excretion (SGLT2 [3]; 150 mg single dose, n = 7) was 168 (49.4)^b mmol and the “Filtered glucose excreted in urine” value (SGLT2 [3]; 500 mg single dose) was 34.2 (5.0) %. For the same compound, the Urinary glucose excretion (SGLT2 [3]; 500 mg single dose) was 223 (49.5) mmol, the “Filtered glucose excreted in urine” value (SGLT2 [3]; 1000 mg single dose) was 26.4 (11.7) % and the Urinary glucose excretion (SGLT2 [3]; 1000 mg single dose) was 304 (137) mmol. The “Total amount of glucose excreted in urine from 0–24 h, dose dependence” value (SGLT2 [3]; both populations, less than proportional to dose) was “increased in a dose-dependent manner”, the “Fluid balance (total fluid intake minus total urine volume)” value ([4]; 0–12 h post-dose, 50 mg) was -78(433) mL and the “Fluid balance (total fluid intake minus total urine volume)” value ([4]; 0–12 h post-dose, 500 mg) was -29 (749) mL. For the same compound, the “Fluid balance (total fluid intake minus total urine volume)” value ([4]; 12–24 h post-dose, 50 mg) was -803 (658) mL, the “Fluid balance (total fluid intake minus total urine volume)” value ([4]; 12–24 h post-dose, 500 mg) was -1088(679) mL and the “Fluid balance (total fluid intake minus total urine volume)” value ([4]; -24 h to pre-dose (baseline before dosing), 50 mg period) was -504 (294) mL. The “Fluid balance (total fluid intake minus total urine volume)” value ([4]; -24 h to pre-dose (baseline before dosing), 500 mg period) was 188 (1879) mL, the “Fluid balance (total fluid intake minus total urine volume)” value ([4]; -24 h to pre-dose (baseline before dosing), 500 mg period, listed as remogliflozin etabonate) was “+188 mL” and the “Plasma glucose AUC 0–4 h” value [5] was “approximately 18 mmol•h/L”. For the same compound, the “Plasma glucose AUC 0–12 h” value [5] was 55 to 59 mmol·h/L and the Urinary glucose excretion [6] was “concentration-dependent increase”.
